Series [1] concerns the target Voltage-dependent T-type calcium channel subunit alpha-1I (Homo sapiens, UniProt Q9P0X4). The series is described as follows: Channel blocking activity at recombinant human CaV 3.3 channel expressed in HEK293 cells assessed as inhibition of Ca2+ flux preincubated for 3 mins followed by CaCl2 addition by fluo-4 dye-based FLIPR assay. It counts as cell-based.
Series [2] in a line: Intrinsic clearance in human liver microsomes at 1 uM up to 15 mins in presence of NADPH by LC-MS-MS analysis. It counts as ADME. To be noted: read-out: CLH.
The target in series [3] is Voltage-dependent T-type calcium channel subunit alpha-1H (Homo sapiens, UniProt O95180). The series is described as follows: Channel blocking activity at recombinant human CaV 3.2 channel expressed in HEK293 cells assessed as inhibition of Ca2+ flux preincubated for 3 mins followed by CaCl2 addition by fluo-4 dye-based FLIPR assay. It counts as cell-based.
Series [4] deals with Voltage-dependent T-type calcium channel subunit alpha-1G (Homo sapiens, UniProt O43497). The experiment in a line: Channel blocking activity at recombinant human CaV 3.1 channel expressed in HEK293 cells assessed as inhibition of Ca2+ flux preincubated for 3 mins followed by CaCl2 addition by fluo-4 dye-based FLIPR assay. It counts as cell-based.

SMILES strings stand for the structures.

Sequence of Voltage-dependent T-type calcium channel subunit alpha-1G (O43497 whole entry): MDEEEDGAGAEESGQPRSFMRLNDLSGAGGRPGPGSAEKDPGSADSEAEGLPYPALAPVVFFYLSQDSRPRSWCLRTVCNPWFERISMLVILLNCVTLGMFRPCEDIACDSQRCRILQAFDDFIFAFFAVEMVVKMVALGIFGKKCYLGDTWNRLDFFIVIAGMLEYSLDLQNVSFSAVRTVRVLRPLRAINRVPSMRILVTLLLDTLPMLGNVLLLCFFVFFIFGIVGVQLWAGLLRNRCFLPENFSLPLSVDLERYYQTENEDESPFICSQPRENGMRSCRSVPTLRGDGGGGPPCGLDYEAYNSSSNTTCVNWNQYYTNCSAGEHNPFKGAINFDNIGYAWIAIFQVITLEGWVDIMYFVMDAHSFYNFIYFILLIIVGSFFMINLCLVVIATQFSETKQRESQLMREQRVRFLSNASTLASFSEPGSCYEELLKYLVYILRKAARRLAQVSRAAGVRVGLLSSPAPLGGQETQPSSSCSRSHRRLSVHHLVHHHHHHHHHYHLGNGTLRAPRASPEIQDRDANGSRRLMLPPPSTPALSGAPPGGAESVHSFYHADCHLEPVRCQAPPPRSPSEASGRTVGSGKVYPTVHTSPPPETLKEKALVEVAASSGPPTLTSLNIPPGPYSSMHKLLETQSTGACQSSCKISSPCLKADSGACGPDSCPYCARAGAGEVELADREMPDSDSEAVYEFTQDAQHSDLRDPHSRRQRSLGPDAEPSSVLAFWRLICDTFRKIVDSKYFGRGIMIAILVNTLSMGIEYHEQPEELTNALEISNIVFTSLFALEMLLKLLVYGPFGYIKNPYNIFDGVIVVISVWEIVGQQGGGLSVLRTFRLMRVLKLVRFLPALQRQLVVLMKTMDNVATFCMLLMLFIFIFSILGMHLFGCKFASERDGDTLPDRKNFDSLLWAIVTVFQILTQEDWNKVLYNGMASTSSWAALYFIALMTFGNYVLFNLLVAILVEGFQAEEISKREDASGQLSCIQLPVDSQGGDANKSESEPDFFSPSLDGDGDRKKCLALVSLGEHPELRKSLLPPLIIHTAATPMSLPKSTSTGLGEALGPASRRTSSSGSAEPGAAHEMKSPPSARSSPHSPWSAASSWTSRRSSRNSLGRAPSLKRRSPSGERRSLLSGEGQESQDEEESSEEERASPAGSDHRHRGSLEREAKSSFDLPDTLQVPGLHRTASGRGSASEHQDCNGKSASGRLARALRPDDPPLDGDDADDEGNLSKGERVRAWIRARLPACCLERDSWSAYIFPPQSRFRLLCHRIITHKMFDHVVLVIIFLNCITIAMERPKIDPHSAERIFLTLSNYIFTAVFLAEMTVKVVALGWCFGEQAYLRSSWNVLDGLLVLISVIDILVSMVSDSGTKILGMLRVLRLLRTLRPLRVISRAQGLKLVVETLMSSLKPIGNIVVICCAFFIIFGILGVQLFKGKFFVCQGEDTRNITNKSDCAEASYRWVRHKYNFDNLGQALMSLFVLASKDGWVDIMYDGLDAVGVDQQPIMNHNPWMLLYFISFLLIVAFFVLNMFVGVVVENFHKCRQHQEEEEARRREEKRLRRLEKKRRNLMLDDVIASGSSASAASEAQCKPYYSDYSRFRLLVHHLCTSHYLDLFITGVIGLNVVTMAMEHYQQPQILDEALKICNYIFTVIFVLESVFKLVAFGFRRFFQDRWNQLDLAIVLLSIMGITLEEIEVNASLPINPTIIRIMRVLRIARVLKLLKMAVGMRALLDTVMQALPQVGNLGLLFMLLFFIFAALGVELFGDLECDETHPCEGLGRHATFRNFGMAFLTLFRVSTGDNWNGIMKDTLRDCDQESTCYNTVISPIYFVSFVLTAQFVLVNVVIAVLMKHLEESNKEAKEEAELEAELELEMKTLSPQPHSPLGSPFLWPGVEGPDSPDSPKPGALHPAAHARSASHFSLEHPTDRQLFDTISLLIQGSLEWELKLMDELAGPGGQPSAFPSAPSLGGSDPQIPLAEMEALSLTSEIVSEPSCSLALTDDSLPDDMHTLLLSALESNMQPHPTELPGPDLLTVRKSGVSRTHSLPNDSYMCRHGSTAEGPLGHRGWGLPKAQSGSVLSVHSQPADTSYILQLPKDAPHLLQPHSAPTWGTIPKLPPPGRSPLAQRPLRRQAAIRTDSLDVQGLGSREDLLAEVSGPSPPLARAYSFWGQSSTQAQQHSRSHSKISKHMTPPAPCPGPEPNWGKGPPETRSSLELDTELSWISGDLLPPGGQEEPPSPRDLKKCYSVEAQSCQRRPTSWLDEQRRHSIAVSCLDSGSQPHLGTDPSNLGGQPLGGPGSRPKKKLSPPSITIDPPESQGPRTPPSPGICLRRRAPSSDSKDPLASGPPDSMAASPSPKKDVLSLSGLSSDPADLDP
Sequence of Voltage-dependent T-type calcium channel subunit alpha-1I (Q9P0X4 whole entry): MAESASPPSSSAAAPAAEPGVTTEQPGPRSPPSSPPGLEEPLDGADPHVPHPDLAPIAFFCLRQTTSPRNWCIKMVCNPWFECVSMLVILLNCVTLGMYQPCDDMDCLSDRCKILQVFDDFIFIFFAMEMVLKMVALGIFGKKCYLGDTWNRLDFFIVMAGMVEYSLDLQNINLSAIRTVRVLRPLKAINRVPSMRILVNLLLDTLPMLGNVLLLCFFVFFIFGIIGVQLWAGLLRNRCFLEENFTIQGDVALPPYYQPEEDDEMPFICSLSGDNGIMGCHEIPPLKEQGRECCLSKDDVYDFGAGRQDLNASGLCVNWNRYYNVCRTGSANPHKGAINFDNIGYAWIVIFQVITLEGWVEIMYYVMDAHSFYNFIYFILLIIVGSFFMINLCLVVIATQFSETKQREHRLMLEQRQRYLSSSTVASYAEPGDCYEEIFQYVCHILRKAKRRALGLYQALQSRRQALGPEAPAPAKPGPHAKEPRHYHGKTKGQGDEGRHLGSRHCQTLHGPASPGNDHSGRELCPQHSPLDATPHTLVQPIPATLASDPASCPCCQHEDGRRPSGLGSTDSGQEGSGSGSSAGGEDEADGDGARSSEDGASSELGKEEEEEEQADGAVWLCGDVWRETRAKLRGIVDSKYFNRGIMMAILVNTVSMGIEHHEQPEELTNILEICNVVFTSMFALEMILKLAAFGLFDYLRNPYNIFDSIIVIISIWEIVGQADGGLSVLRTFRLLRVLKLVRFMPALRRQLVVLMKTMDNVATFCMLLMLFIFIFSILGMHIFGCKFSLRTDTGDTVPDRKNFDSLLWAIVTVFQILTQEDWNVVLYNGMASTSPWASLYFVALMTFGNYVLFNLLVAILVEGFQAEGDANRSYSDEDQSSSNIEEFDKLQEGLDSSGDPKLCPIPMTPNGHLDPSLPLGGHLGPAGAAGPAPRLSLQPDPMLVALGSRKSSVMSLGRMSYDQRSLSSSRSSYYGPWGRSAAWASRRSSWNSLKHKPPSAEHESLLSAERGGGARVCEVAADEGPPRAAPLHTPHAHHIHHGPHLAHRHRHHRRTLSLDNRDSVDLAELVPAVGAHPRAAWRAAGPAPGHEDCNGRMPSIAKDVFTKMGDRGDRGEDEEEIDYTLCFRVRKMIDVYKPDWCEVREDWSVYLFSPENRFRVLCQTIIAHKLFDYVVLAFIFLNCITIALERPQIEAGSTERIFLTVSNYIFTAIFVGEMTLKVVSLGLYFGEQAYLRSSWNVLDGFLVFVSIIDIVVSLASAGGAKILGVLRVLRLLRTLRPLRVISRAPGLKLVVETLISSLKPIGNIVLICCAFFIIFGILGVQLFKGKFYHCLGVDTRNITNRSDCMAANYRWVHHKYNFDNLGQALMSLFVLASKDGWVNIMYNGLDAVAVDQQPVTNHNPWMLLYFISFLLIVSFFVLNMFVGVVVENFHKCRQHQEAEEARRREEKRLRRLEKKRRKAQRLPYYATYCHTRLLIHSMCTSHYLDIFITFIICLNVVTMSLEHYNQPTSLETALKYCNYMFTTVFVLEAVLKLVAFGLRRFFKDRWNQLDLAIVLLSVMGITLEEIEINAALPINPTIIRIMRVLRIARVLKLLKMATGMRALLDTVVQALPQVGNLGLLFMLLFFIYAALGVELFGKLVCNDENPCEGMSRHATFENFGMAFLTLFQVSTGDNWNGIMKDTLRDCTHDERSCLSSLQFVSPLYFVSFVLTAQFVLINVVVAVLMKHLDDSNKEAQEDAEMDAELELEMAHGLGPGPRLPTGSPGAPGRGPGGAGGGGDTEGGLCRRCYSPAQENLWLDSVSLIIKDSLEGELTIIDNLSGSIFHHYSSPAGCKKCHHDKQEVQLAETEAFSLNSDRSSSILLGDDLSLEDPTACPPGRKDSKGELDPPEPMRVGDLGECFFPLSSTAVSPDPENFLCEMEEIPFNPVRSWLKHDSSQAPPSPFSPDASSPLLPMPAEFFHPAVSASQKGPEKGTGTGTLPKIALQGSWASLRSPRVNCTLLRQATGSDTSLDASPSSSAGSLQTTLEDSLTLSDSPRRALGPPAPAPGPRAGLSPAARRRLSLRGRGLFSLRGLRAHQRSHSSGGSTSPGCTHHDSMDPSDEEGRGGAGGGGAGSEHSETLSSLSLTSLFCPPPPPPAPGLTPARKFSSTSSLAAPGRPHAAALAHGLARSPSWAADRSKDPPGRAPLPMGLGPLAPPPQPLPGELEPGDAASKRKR

As to `Cc1ccc2c(n1)N(Cc1ccccc1)C[C@@H](C)N(C(=O)NCc1ccccc1)[C@H]2C` (racemic), the results for the IC50 in series [1], in series [3] and in series [4] were 33 nM, 28 nM and 18 nM, respectively. Besides, the microsomal CLint at 1 µM in series [2] worked out at 1240 µL/min/mg.

In the case of `C[C@@H]1CN(Cc2cnc(C(F)(F)F)s2)c2ccccc2[C@H](C)N1C(=O)CCc1cccnc1` (racemic), the IC50 came out at 13 nM in series [1], 30 nM in series [3] and 40 nM in series [4]. Further, in series [2], the microsomal CLint at 1 µM was 332 µL/min/mg.

As for `C[C@@H]1CN(Cc2ccccc2)c2nc(F)ccc2[C@H](C)N1C(=O)NCc1ccccc1` (racemic), the values for the IC50 in series [1], in series [3] and in series [4] were 4 nM, 6 nM and 7 nM, respectively. In addition, the microsomal CLint at 1 µM in series [2] is above 1250 µL/min/mg.

With `C[C@@H]1CN(Cc2ccccc2)c2c(F)cccc2[C@H](C)N1C(=O)Nc1cccnc1` (racemic), the IC50 in series [1] came out at 17 nM; in series [3], 205 nM; in series [4], 178 nM. Besides, the microsomal CLint at 1 µM in series [2] turned out to be 720 µL/min/mg.

Take `C[C@@H]1CN(Cc2ccccc2)c2cccc(F)c2[C@H](C)N1C(=O)CCc1cccnc1` (racemic): the IC50 in series [1] worked out at 17 nM; in series [3], 52 nM; in series [4] it was 47 nM. Further, in series [2], the microsomal CLint at 1 µM was determined as 562 µL/min/mg.

As for `C[C@@H]1CN(Cc2ccccc2)c2ccc(F)cc2[C@H](C)N1C(=O)Nc1cccnc1` (racemic), the IC50 in series [1] stood at 8 nM; in series [3], 112 nM; in series [4] it was 68 nM. The microsomal CLint at 1 µM in series [2] was above 1250 µL/min/mg.

Regarding `C[C@@H]1CN(CC2CCCC2)c2ccccc2[C@H](C)N1C(=O)Nc1cccnc1` (racemic), the IC50 was 14 nM in series [1], 62 nM in series [3] and 23 nM in series [4]. Besides, the microsomal CLint at 1 µM in series [2] is 1150 µL/min/mg.

Regarding `C[C@@H]1CN(Cc2ccccc2)c2nc(Cl)ccc2[C@H](C)N1C(=O)NCc1ccccc1` (racemic), the IC50 in series [1] is 22 nM; in series [3] it was 36 nM; in series [4] it was 16 nM. Further, the microsomal CLint at 1 µM in series [2] came out at 1000 µL/min/mg.

On to `CC(C)CCN1C[C@@H](C)N(C(=O)CCc2cccnc2)[C@@H](C)c2ccccc21` (racemic), for which the IC50 in series [1] came to 13 nM; in series [3], 62 nM; in series [4], 29 nM. Further, in series [2], the microsomal CLint at 1 µM was 412 µL/min/mg.

For `C[C@@H]1CN(Cc2ccccc2)c2nc(C(F)(F)F)ccc2[C@H](C)N1C(=O)NCc1ccccc1` (racemic), the figures for the IC50 in series [1], in series [3] and in series [4] were 281 nM, 104 nM and 57 nM, respectively. Also, the microsomal CLint at 1 µM in series [2] came to 531 µL/min/mg.

As to `C[C@@H]1CN(Cc2cnc(C(F)(F)F)s2)c2ccccc2[C@H](C)N1C(=O)NCc1ccccc1` (racemic), the IC50 in series [1] came to 6 nM; in series [3], 15 nM; in series [4] it was 13 nM. Moreover, the microsomal CLint at 1 µM in series [2] was above 1250 µL/min/mg.

In the case of `[2H]C([2H])(c1ccccc1)N1C[C@@H](C)N(C(=O)Nc2cccnc2)[C@@H](C)c2ccccc21` (racemic), the half-maximal inhibitory concentration (IC50) in series [1] is 4 nM; in series [3] it was 25 nM; in series [4], 27 nM. Further, in series [2], the microsomal CLint at 1 µM is 1110 µL/min/mg.

Turning to `CC(C)CCN1C[C@@H](C)N(C(=O)CCc2cccnc2)[C@@H](C)c2c(F)cccc21` (racemic), the IC50 in series [1] turned out to be 52 nM; in series [3], 66 nM; in series [4] it was 45 nM. Further, the microsomal CLint at 1 µM in series [2] turned out to be 357 µL/min/mg.

`COc1ccc2c(c1)[C@H](C)N(C(=O)Nc1cccnc1)[C@H](C)CN2Cc1ccccc1` (racemic): the results for the IC50 in series [1], in series [3] and in series [4] were 100 nM, 530 nM and 390 nM, respectively. Moreover, the microsomal CLint at 1 µM in series [2] was determined as 521 µL/min/mg.

For `C[C@@H]1CN(Cc2ccccc2)c2ncc(F)cc2[C@H](C)N1C(=O)NCc1ccccc1` (racemic), the IC50 in series [1] is 15 nM; in series [3], 95 nM; in series [4], 65 nM. In addition, the microsomal CLint at 1 µM in series [2] amounted to 837 µL/min/mg.

Consider `C[C@@H]1CN(Cc2ccccc2)c2cccc(F)c2[C@H](C)N1C(=O)NC1COC1` (racemic), for which the IC50 amounted to 13 nM in series [1], 59 nM in series [3] and 40 nM in series [4]. Moreover, the microsomal CLint at 1 µM in series [2] was 375 µL/min/mg.

On to `C[C@@H]1CN(Cc2cnc(C(F)(F)F)s2)c2cccc(F)c2[C@H](C)N1C(=O)CCc1cccnc1` (racemic), for which the IC50 in series [1] worked out at 20 nM; in series [3] it was 93 nM; in series [4], 115 nM. The microsomal CLint at 1 µM in series [2] was found to be 193 µL/min/mg.

For the molecule `C[C@@H]1CN(Cc2ccc(C(F)(F)F)o2)c2ccccc2[C@H](C)N1C(=O)Nc1cccnc1` (racemic), the values for the IC50 in series [1], in series [3] and in series [4] were 9 nM, 14 nM and 4 nM, respectively. In series [2], the microsomal CLint at 1 µM is above 1250 µL/min/mg.

For `C[C@@H]1CN(Cc2ccccc2)c2ncc(Cl)cc2[C@H](C)N1C(=O)NCc1ccccc1` (racemic), the IC50 in series [1] came out at 46 nM; in series [3] it was 68 nM; in series [4] it was 78 nM. Moreover, the microsomal CLint at 1 µM in series [2] amounted to 409 µL/min/mg.

For `C[C@@H]1CN(Cc2ccccc2)c2cc(F)ccc2[C@H](C)N1C(=O)Nc1cccnc1` (racemic), the half-maximal inhibitory concentration (IC50) in series [1] was found to be 4 nM; in series [3], 12 nM; in series [4] it was 6 nM. In series [2], the microsomal CLint at 1 µM was above 1250 µL/min/mg.

Regarding `COc1ccc(CN2C[C@@H](C)N(C(=O)NCc3ccccc3)[C@@H](C)c3ccccc32)cn1` (racemic), the IC50 came out at 10 nM in series [1], 33 nM in series [3] and 45 nM in series [4]. Further, the microsomal CLint at 1 µM in series [2] was above 1250 µL/min/mg.

In the case of `C[C@@H]1CN(Cc2cccc(F)c2F)c2cnccc2[C@H](C)N1C(=O)NCc1ccccc1` (racemic), the IC50 in series [1] stood at 13 nM; in series [3], 72 nM; in series [4], 38 nM. Besides, in series [2], the microsomal CLint at 1 µM was found to be 212 µL/min/mg.

Turning to `C[C@@H]1CN(Cc2ccccc2)c2ncccc2[C@H](C)N1C(=O)NCc1ccccc1` (racemic), the IC50 in series [1] is 8 nM; in series [3] it was 31 nM; in series [4], 15 nM. The microsomal CLint at 1 µM in series [2] came out at 1060 µL/min/mg.

Turning to `C[C@@H]1CN(Cc2ccccc2)c2cc(C#N)ccc2[C@H](C)N1C(=O)Nc1cccnc1` (racemic), the IC50 in series [1] stood at 308 nM; in series [3] it was 860 nM; in series [4], 582 nM. Also, the microsomal CLint at 1 µM in series [2] came out at 418 µL/min/mg.

Take `C[C@@H]1CN(Cc2ccccc2)c2cc(F)cc(F)c2[C@H](C)N1C(=O)Nc1cccnc1` (racemic): the IC50 in series [1] worked out at 8 nM; in series [3], 22 nM; in series [4], 12 nM. The microsomal CLint at 1 µM in series [2] is 873 µL/min/mg.

Take `COc1ccc2c(c1)N(Cc1ccccc1)C[C@@H](C)N(C(=O)Nc1cccnc1)[C@H]2C` (racemic): the figures for the IC50 in series [1], in series [3] and in series [4] were 610 nM, 1600 nM and 627 nM, respectively. In addition, the microsomal CLint at 1 µM in series [2] came out at 649 µL/min/mg.

As to `C[C@@H]1CNc2ccccc2[C@H](C)N1C(=O)NCc1ccccc1` (racemic), the IC50 in series [1] was above 8600 nM; in series [3], above 10700 nM; in series [4], above 10000 nM. Further, the microsomal CLint at 1 µM in series [2] was determined as 59 µL/min/mg.

Take `CCN1C[C@@H](C)N(C(=O)NCc2ccccc2)[C@@H](C)c2ccccc21` (racemic): the results for the half-inhibitory concentration (IC50) in series [1], in series [3] and in series [4] were 139 nM, 922 nM and 754 nM, respectively. In series [2], the microsomal CLint at 1 µM was above 1250 µL/min/mg.

With `C[C@@H]1CN(c2ccccc2)c2ccccc2[C@H](C)N1C(=O)NCc1ccccc1` (racemic), the IC50 in series [1] is 225 nM; in series [3], 209 nM; in series [4] it was 256 nM. Also, the microsomal CLint at 1 µM in series [2] is above 1250 µL/min/mg.

Consider `C[C@@H]1CN(Cc2ccc(C(F)(F)F)o2)c2ccccc2[C@H](C)N1C(=O)NCc1ccccc1` (racemic), for which the figures for the IC50 in series [1], in series [3] and in series [4] were 6 nM, 13 nM and 7 nM, respectively. Further, the microsomal CLint at 1 µM in series [2] is above 1250 µL/min/mg.

In the case of `C[C@@H]1CN(Cc2cnc(C(F)(F)F)s2)c2ccccc2[C@H](C)N1C(=O)Nc1cccnc1` (racemic), the half-maximal inhibitory concentration (IC50) came out at 33 nM in series [1], 42 nM in series [3] and 33 nM in series [4]. The microsomal CLint at 1 µM in series [2] was above 1250 µL/min/mg.

Take `C[C@@H]1CN(Cc2ccccc2)c2cc(OCC(F)(F)F)ccc2[C@H](C)N1C(=O)Nc1cccnc1` (racemic): the values for the IC50 in series [1], in series [3] and in series [4] were 3560 nM, 790 nM and 187 nM, respectively. The microsomal CLint at 1 µM in series [2] is above 1250 µL/min/mg.

Regarding `C[C@@H]1CN(Cc2cccnc2F)c2ccccc2[C@H](C)N1C(=O)NCc1ccccc1` (racemic), the figures for the IC50 in series [1], in series [3] and in series [4] were 10 nM, 49 nM and 53 nM, respectively. Also, the microsomal CLint at 1 µM in series [2] was above 1250 µL/min/mg.

For `C[C@@H]1CN(Cc2ccccc2)c2cccc(F)c2[C@H](C)N1C(=O)Nc1cccnc1` (racemic), the IC50 was 10 nM in series [1], 52 nM in series [3] and 20 nM in series [4]. Moreover, in series [2], the microsomal CLint at 1 µM was 628 µL/min/mg.

As for `CC(C)CCN1C[C@@H](C)N(C(=O)Nc2cccnc2)[C@@H](C)c2ccccc21` (racemic), the IC50 in series [1] stood at 12 nM; in series [3], 91 nM; in series [4], 23 nM. In addition, the microsomal CLint at 1 µM in series [2] was above 1250 µL/min/mg.

For `C[C@@H]1CN(Cc2ccccc2)c2cnc(Cl)cc2[C@H](C)N1C(=O)NCc1ccccc1` (racemic), the IC50 in series [1] came out at 55 nM; in series [3] it was 224 nM; in series [4] it was 220 nM. Further, the microsomal CLint at 1 µM in series [2] was above 1250 µL/min/mg.

Source of the values: ChEMBL document CHEMBL3864167, “Structure-Activity Relationship, Drug Metabolism and Pharmacokinetics Properties Optimization, and in Vivo Studies of New Brain Penetrant Triple T-Type Calcium Channel Blockers” (J Med Chem, 2016).
